Values after ≈ are worked out from the molar mass of the structure shown. Where two headings read alike, the source gives them in different places.
What was measured:
[1] = system: C. difficile; test: MIC by broth microdilution against C. difficile strains; type: cell-based, Clostridioides difficile; settings: Clostridioides difficile; for MIC: Table 9, read-out: MIC
[2] = system: Lactobacillus gasseri; test: MIC against gut bacterium Lactobacillus gasseri; type: cell-based
[3] = system: Veillonella sp. HM-49; test: MIC against gut bacterium Veillonella sp.; type: cell-based
[4] = system: MRSA (NRS70, NRS119); test: MIC against MRSA strains; type: cell-based, Staphylococcus aureus; settings: Staphylococcus aureus, read-out: MIC
[5] = system: Fusobacterium nucleatum; test: MIC against gut bacterium Fusobacterium nucleatum; type: cell-based; settings: Fusobacterium nucleatum, Fusobacterium nucleatum strain HM-992, read-out: MIC
[6] = system: Bifidobacterium longum; test: MIC against gut bacterium Bifidobacterium longum; type: cell-based; settings: Bifidobacterium longum, Bifidobacterium longum strain HM-846, read-out: MIC
[7] = system: S. aureus ATCC29213; test: MIC against MSSA; type: cell-based, Staphylococcus aureus; settings: Staphylococcus aureus; S. aureus ATCC29213; Table 1; read-out: MIC
[8] = system: Eubacterium sp.; test: MIC against gut bacterium Eubacterium sp.; type: cell-based; settings: Eubacterium, Eubacterium sp. strain HM-178, read-out: MIC
[9] = system: Corynebacterium spp.; test: MIC against gut bacterium Corynebacterium spp.; type: cell-based; settings: Corynebacterium, Corynebacterium spp. strain HM-784
[10] = system: Lactobacillus reuteri; test: MIC against gut bacterium Lactobacillus reuteri; type: cell-based
[11] = system: Bacteroides fragilis; test: MIC against gut bacterium Bacteroides fragilis; type: cell-based; settings: Bacteroides fragilis, Bacteroides fragilis strain HM-709, read-out: MIC

- MIC ([1]; C. difficile NR-32897): 0.5 µg/mL (≈ 2.92 µM)
- MIC ([1]; C. difficile NR-32900): 1 µg/mL (≈ 5.84 µM)
- MIC ([1]; C. difficile NR-32903): 0.5 µg/mL (≈ 2.92 µM)
- MIC ([1]; C. difficile NR-32904): 0.5 µg/mL (≈ 2.92 µM)
- MIC ([1]; C. difficile NR-49277): 0.5 µg/mL (≈ 2.92 µM)
- MIC ([1]; C. difficile NR-49278): 0.5 µg/mL (≈ 2.92 µM)
- MIC ([1]; C. difficile NR-49279): 1 µg/mL (≈ 5.84 µM)
- MIC ([1]; C. difficile NR-49280): 1 µg/mL (≈ 5.84 µM)
- MIC ([1]; C. difficile NR-49281): 1 µg/mL (≈ 5.84 µM)
- MIC ([1]; C. difficile NR-49282): 0.5 µg/mL (≈ 2.92 µM)
- MIC ([1]; C. difficile NR-49283): 0.5 µg/mL (≈ 2.92 µM)
- MIC ([1]; C. difficile NR-49284): 0.5 µg/mL (≈ 2.92 µM)
- MIC ([1]; C. difficile NR-49285): 0.5 µg/mL (≈ 2.92 µM)
- MIC ([1]; C. difficile NR-49286): 1 µg/mL (≈ 5.84 µM)
- MIC ([1]; C. difficile NR-49287): 0.5 µg/mL (≈ 2.92 µM)
- MIC ([1]; C. difficile NR-49288): 0.5 µg/mL (≈ 2.92 µM)
- MIC ([1]; C. difficile NR-49289): 0.5 µg/mL (≈ 2.92 µM)
- MIC ([1]; C. difficile NR-49290): 1 µg/mL (≈ 5.84 µM)
- MIC ([1]; C. difficile NR-49291): 1 µg/mL (≈ 5.84 µM)
- MIC ([1]; C. difficile NR-49293): 0.5 µg/mL (≈ 2.92 µM)
- MIC ([1]; C. difficile NR-49295): 0.5 µg/mL (≈ 2.92 µM)
- MIC ([1]; C. difficile NR-49296): 0.5 µg/mL (≈ 2.92 µM)
- MIC ([1]; C. difficile NR-49297): 0.5 µg/mL (≈ 2.92 µM)
- MIC ([1]; C. difficile NR-49298): 1 µg/mL (≈ 5.84 µM)
- MIC ([1]; C. difficile NR-49299): 0.5 µg/mL (≈ 2.92 µM)
- MIC ([1]; C. difficile NR-49300): 0.5 µg/mL (≈ 2.92 µM)
- MIC ([1]; C. difficile NR-49301): 0.5 µg/mL (≈ 2.92 µM)
- MIC ([1]; C. difficile NR-49303): 0.5 µg/mL (≈ 2.92 µM)
- MIC ([1]; C. difficile NR-49304): 0.5 µg/mL (≈ 2.92 µM)
- MIC ([1]; C. difficile NR-49306): 0.5 µg/mL (≈ 2.92 µM)
- MIC ([1]; C. difficile NR-49307): 0.5 µg/mL (≈ 2.92 µM)
- MIC ([1]; C. difficile NR-49308): 0.5 µg/mL (≈ 2.92 µM)
- MIC ([1]; C. difficile NR-49309): 0.25 µg/mL (≈ 1.46 µM)
- MIC ([1]; C. difficile NR-49311): 0.5 µg/mL (≈ 2.92 µM)
- MIC ([1]; C. difficile NR-49312): 0.5 µg/mL (≈ 2.92 µM)
- MIC ([1]; C. difficile NR-49313): 0.5 µg/mL (≈ 2.92 µM)
- MIC ([1]; C. difficile NR-49314): 0.5 µg/mL (≈ 2.92 µM)
- MIC ([1]; C. difficile NR-49315): 0.5 µg/mL (≈ 2.92 µM)
- MIC ([1]; C. difficile NR-49316): 0.5 µg/mL (≈ 2.92 µM)
- MIC ([1]; C. difficile NR-49317): 0.5 µg/mL (≈ 2.92 µM)
- MIC ([1]; C. difficile NR-49319): 0.5 µg/mL (≈ 2.92 µM)
- MIC ([1]; C. difficile NR-49320): 0.5 µg/mL (≈ 2.92 µM)
- MIC ([1]; C. difficile NR-49321): 0.5 µg/mL (≈ 2.92 µM)
- MIC ([1]; C. difficile NR-49323): 0.25 µg/mL (≈ 1.46 µM)
- MIC ([1]; C. difficile NR-49324): 0.25 µg/mL (≈ 1.46 µM)
- MIC ([1]; C. difficile NR-49325): 0.5 µg/mL (≈ 2.92 µM)
- MIC ([1]; C. difficile NR-49326): 0.5 µg/mL (≈ 2.92 µM)
- MIC ([1]; C. difficile NR-49327): 0.5 µg/mL (≈ 2.92 µM)
- MIC ([1]; C. difficile NR-49328): 0.25 µg/mL (≈ 1.46 µM)
- MIC ([1]; C. difficile NR-49329): 0.25 µg/mL (≈ 1.46 µM)
- MIC50 ([1]; 101 C. difficile strains): 0.5 µg/mL (≈ 2.92 µM)
- MIC90 ([1]; 101 C. difficile strains, read-out: MIC90 (101 strains)): 1 µg/mL (≈ 5.84 µM)
- MIC ([2]; Lactobacillus gasseri strain HM-644, Table 7): >32 µg/mL
- MIC ([2]; Lactobacillus gasseri, Lactobacillus gasser strain HM-644, Table 1, read-out: MIC): > 32 µg/mL
- MIC ([3]; SP.HM49, Veillonella sp. HM-49, Table 1, read-out: MIC): 2 µg/mL (≈ 11.7 µM)
- MIC ([3]; Veillonella sp. strain HM-49, Table 7): 2 µg/mL (≈ 11.7 µM)
- MIC ([4]; MRSA NRS70, Table 1): > 128 µg/mL
- MIC ([4]; MRSA NRS70, Table 7): > 128 µg/mL
- MIC ([4]; MRSA NRS119, Table 1): > 128 µg/mL
- MIC ([5]; Table 1): 2 µg/mL (≈ 11.7 µM)
- MIC ([5]; Table 7): 2 µg/mL (≈ 11.7 µM)
- MIC ([6]; Table 1): 0.5 µg/mL (≈ 2.92 µM)
- MIC ([6]; Table 7): 1 µg/mL (≈ 5.84 µM)
- MIC [7]: > 128 µg/mL
- MIC ([8]; Table 1): 1 µg/mL (≈ 5.84 µM)
- MIC ([8]; Table 7): 1 µg/mL (≈ 5.84 µM)
- MIC ([9]; Table 1): > 32 µg/mL
- MIC ([9]; Table 7): > 32 µg/mL
- MIC ([10]; Lactobacillus reuteri strain HM-102, Table 7): >32 µg/mL
- MIC ([10]; Limosilactobacillus reuteri, Lactobacillus reuter strain HM-102, Table 1, read-out: MIC): > 32 µg/mL
- MIC ([11]; Table 1): 0.5 µg/mL (≈ 2.92 µM)
- MIC ([11]; Table 7): 1 µg/mL (≈ 5.84 µM)
SMILES: Cc1ncc([N+](=O)[O-])n1CCO [MTZ, metronidazole, reference compound]
